Read-outs that look alike come from different tables or passages of the source.
System: L-1210 mouse lymphocytic leukemia cells
Assay: Toxicity to cultured L-1210 cells, number of viable cells
Assay type: cell-based
Source text: 2. Effects of orotate analogues on cell viability and the ability to synthesize nucleic acids from radioactive precursors, and the rescuing effects of normal pyrimidine bases or nucleosides or amino acid derivatives such as histidinol, can be tested in human-derived tissue culture cell lines. Human HT-1080 human sarcoma cells [Rusheed, S., et al., Cancer, 33:1027-30 (1974)], human diploid IMR-90 cells [Nichols, W. W., et al., Science, 196:60-3 (1977)], human cervical […] HeLa S3 cells [Puck, T. T., et al., J. Exp. Med., 103:273-84 (1956)], HL-60 human myeloid leukemia cells [Collins, S. J., et al., Nature, 270:347-9 (1977)], and mouse leukemia L-1210 cells [Moore, G. E., J. Nat. […] The growth medium most suitable for each cell line can be determined by reference to the publications cited above: briefly, HT-1080 cells are maintained in Eagle's Minimal Essential Medium (EMEM) supplemented with 5% fetal bovine serum (FBS) and 2 mM L-glutamine; IMR-90 cells are grown in EMEM supplemented with 10% FBS, 10 mM Hepes buffer, 0.21% NaHCO3, and 2 mM L-glutamine. […]
Toxicity of pyrimidine analogues to cultured human cells is determined as follows. […] Thereafter, the number of cells in each well is determined. […] Cells that grow in suspension (e.g., HL-60 and L-1210 cells) are transferred to centrifuge tubes, pelleted at low speed, washed, and the viability determined as above. […]

SMILES: O=C(O)c1[nH]c(=O)[nH]c(=O)c1F [5-fluoro-orotate]
- IC50 (L1210, L-1210, with 1 mM uridine, read-out: IC50 With 1 mM Uridine): 5 µM
- IC50 (L1210, L-1210, without uridine, read-out: IC50 Without Uridine): 2.8 µM

Source: US6159953A, “Anti-malarial composition and method of use” (Catholic University of America, priority 1992, dated 2000)
